Assays:
[1] = biological target: Menin/Histone-lysine N-methyltransferase MLL (Homo sapiens, UniProt O00255)
Description: (§1) Inhibition of full length human menin/FAM-tagged MLL1 (unknown origin) protein-protein interaction after 15 mins by fluorescence polarization assay

[2] = biological target: T1, Lysine-specific histone demethylase 1A (Homo sapiens, UniProt O60341)
Description: (§2) Inhibition of recombinant human LSD1 (172 to 852 residues) using biotin-labelled H3K4me2 (1 to 24 residues) after 1 hr by TR-FRET assay

[3] = tested on: MV4-11; experiment: cells; conditions: Homo sapiens, MV4-11, 168 h
Description: Antiproliferative activity against human MV4-11 cells after 168 hrs by MTS assay

[4] = biological target: T2, Amine oxidase [flavin-containing] B (Homo sapiens, UniProt P27338)
T2 sequence (P27338 whole entry): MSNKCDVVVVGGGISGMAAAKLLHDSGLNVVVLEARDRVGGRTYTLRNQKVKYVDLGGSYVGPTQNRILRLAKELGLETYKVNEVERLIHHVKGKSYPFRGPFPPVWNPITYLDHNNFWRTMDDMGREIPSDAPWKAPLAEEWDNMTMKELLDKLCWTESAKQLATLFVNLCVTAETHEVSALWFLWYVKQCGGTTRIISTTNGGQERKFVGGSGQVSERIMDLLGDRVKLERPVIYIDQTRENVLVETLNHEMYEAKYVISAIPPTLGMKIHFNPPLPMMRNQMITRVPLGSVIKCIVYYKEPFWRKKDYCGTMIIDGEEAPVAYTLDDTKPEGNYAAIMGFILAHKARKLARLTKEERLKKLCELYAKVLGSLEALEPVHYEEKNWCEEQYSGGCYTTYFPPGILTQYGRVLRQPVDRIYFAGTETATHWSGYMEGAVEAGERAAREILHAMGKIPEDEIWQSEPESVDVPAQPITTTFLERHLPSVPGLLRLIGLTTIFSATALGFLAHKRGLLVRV
Description: (§3) Inhibition of MAOB (unknown origin) by Promega MAO-Glo assay

[5] = biological target: T3, Amine oxidase [flavin-containing] A (Homo sapiens, UniProt P21397)
T3 sequence (P21397 whole entry): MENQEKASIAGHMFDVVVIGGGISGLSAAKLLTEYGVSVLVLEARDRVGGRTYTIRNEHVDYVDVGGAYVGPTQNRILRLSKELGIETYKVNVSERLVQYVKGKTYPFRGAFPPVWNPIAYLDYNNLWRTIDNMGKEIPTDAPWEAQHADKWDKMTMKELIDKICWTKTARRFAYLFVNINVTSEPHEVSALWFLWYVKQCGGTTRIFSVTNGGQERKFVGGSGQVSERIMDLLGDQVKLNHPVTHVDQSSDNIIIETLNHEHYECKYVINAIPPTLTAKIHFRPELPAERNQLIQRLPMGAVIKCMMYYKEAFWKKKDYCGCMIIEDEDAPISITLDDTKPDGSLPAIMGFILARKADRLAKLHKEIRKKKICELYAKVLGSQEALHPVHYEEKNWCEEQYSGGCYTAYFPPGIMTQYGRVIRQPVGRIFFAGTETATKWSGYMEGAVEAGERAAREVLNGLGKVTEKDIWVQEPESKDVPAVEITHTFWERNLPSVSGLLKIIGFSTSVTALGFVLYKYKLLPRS
Description: (§4) Inhibition of MAOA (unknown origin) by Promega MAO-Glo assay

[6] = biological target: T1, Lysine-specific histone demethylase 1A; experiment: Inhibition of LSD1 in human MV4-11 cells assessed as increase in CD86 mRNA expression at 500 nM by SYBR Green dye-bsed RT-qPCR analysis relative to control; type: cell-based
[7] = biological target: T1, Lysine-specific histone demethylase 1A; remark: listed apart in the source
Description: as §2

[8] = biological target: T3, Amine oxidase [flavin-containing] A; remark: listed apart in the source
Description: as §4

[9] = biological target: T2, Amine oxidase [flavin-containing] B; remark: listed apart in the source
Description: as §3

[10] = tested on: MV4-11; experiment: Antiproliferative activity against human MV4-11 cells after 240 hrs by MTS assay; type: functional, cell-based; conditions: MV4-11, 240 h
[11] = biological target: Menin/Histone-lysine N-methyltransferase MLL (Homo sapiens, UniProt O00255+Q03164)
Description: as §1

[12] = biological target: T1, Lysine-specific histone demethylase 1A; experiment: Inhibition of LSD1 in human MV4-11 cells assessed as increase in CD86 mRNA expression at 100 nM by SYBR Green dye-bsed RT-qPCR analysis relative to control; type: cell-based

Chain of Menin/Histone-lysine N-methyltransferase MLL (Homo sapiens, UniProt O00255) (O00255 whole entry): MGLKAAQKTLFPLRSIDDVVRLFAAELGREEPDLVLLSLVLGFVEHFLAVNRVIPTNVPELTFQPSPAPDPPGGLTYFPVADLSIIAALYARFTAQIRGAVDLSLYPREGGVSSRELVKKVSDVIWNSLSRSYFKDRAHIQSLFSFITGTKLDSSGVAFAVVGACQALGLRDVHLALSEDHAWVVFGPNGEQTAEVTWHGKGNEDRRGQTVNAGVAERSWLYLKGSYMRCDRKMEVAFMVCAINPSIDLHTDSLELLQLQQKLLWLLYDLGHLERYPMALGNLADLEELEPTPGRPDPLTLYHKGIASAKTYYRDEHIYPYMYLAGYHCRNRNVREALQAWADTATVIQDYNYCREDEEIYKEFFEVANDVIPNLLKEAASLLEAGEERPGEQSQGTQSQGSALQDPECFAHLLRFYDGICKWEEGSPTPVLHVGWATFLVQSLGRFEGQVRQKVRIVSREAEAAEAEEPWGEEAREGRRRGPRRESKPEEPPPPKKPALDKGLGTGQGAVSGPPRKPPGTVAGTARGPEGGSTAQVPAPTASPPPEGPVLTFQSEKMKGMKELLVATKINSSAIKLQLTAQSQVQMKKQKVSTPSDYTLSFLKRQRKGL
Chain of Menin/Histone-lysine N-methyltransferase MLL (Homo sapiens, UniProt O00255) (Q03164 1-2718 partner limits assumed): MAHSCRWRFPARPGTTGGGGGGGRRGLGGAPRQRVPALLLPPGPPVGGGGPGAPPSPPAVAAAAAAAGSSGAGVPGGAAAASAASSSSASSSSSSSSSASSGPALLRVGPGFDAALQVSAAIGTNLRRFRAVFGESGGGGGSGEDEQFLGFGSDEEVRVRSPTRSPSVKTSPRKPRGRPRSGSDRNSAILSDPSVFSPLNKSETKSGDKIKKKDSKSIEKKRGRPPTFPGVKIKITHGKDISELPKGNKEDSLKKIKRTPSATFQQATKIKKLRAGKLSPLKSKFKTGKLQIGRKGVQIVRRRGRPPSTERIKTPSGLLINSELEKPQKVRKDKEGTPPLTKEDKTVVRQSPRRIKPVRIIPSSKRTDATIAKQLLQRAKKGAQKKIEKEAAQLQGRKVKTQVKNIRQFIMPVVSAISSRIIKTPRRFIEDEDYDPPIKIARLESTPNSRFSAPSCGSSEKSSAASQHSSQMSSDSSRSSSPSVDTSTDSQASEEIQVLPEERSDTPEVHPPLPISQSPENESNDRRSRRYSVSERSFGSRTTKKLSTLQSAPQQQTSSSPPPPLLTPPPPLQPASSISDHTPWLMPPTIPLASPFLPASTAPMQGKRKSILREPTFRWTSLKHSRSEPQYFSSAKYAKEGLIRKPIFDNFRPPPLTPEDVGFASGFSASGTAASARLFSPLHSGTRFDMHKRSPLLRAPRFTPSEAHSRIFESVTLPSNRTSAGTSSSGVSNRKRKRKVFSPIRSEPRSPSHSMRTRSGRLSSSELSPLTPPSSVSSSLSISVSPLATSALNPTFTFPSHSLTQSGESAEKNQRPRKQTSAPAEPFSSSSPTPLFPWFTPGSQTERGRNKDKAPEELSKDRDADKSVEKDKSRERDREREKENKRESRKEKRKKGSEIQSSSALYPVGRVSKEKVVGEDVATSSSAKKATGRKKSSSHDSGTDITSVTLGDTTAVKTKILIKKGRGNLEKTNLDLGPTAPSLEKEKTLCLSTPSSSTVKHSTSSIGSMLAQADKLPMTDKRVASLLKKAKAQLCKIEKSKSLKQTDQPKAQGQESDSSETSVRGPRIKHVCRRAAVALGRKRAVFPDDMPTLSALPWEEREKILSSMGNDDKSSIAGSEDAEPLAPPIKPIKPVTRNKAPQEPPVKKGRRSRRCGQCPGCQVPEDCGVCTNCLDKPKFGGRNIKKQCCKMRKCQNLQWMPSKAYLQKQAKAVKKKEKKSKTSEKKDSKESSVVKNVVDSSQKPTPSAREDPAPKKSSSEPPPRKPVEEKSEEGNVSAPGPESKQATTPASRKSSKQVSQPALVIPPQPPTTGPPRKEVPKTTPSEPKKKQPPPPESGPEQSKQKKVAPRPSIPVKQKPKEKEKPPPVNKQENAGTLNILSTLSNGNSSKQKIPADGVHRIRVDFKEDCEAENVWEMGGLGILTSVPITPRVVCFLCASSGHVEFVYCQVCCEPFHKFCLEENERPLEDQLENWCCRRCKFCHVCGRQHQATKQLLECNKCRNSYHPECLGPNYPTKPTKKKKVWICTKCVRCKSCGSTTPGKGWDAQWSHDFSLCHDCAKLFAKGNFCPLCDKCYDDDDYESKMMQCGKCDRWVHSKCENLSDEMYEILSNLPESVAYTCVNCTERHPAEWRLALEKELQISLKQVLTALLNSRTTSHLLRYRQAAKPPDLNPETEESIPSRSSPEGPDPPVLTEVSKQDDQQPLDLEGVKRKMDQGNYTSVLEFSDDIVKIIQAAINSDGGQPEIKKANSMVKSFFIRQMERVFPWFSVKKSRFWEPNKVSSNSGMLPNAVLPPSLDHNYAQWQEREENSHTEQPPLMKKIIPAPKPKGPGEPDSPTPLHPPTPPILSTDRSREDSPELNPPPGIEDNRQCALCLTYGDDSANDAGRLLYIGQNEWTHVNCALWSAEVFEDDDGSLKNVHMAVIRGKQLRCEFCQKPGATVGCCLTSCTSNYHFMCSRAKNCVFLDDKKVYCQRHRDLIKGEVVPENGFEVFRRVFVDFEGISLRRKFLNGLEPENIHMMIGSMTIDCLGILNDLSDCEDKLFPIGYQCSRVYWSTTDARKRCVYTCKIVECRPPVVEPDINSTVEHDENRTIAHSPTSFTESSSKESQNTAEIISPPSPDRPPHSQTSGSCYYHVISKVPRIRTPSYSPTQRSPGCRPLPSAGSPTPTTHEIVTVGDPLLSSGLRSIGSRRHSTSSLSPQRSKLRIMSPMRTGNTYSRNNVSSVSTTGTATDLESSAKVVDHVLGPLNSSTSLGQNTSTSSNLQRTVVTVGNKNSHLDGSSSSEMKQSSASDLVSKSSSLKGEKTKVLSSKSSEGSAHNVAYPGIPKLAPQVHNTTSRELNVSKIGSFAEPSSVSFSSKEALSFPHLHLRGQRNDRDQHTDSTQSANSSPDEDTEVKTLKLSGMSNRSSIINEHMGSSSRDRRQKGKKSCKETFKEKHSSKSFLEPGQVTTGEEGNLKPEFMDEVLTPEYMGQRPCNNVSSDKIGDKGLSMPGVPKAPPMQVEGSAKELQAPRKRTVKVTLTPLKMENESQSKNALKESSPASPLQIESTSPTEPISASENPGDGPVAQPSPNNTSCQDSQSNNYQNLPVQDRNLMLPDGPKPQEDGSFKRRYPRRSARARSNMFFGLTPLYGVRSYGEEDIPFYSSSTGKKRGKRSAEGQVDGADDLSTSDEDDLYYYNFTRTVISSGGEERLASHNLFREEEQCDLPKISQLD
Chain of Menin/Histone-lysine N-methyltransferase MLL (Homo sapiens, UniProt O00255) (Q03164 2719-3969 partner limits assumed): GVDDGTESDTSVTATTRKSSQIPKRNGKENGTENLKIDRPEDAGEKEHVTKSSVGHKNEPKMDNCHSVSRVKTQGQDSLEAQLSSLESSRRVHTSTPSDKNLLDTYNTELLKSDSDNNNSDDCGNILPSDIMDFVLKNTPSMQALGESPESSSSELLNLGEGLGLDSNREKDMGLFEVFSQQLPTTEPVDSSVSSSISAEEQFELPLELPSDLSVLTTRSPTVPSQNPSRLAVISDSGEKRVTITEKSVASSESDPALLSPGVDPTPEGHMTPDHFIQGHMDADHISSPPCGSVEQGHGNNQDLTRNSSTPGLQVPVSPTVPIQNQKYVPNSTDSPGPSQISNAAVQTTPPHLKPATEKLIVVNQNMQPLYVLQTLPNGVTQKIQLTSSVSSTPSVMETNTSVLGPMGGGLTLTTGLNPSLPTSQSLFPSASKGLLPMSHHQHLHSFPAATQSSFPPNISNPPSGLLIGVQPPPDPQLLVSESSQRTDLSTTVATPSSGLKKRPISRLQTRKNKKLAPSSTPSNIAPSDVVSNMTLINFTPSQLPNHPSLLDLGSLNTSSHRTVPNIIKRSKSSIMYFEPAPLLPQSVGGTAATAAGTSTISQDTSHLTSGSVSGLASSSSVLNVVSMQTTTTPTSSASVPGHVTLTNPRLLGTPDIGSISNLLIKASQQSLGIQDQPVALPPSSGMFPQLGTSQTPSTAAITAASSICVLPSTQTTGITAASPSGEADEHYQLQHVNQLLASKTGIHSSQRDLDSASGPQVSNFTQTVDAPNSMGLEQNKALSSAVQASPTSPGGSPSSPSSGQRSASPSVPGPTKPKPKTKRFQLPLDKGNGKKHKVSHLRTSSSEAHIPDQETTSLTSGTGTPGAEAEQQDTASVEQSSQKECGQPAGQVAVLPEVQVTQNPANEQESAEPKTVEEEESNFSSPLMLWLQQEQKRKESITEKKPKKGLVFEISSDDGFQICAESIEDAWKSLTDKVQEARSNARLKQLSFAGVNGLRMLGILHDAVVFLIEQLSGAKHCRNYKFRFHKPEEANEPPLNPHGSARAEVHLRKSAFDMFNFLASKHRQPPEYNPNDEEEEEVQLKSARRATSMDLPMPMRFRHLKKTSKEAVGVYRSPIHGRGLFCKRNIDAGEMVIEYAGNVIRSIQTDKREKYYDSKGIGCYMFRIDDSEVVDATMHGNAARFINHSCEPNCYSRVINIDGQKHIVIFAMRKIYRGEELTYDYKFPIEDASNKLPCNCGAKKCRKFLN
Chain of Menin/Histone-lysine N-methyltransferase MLL (Homo sapiens, UniProt O00255+Q03164) (O00255 whole entry): as the sequence (O00255 whole entry) above
Chain of Menin/Histone-lysine N-methyltransferase MLL (Homo sapiens, UniProt O00255+Q03164) (Q03164 1-2718 limits assumed): as the sequence (Q03164 1-2718 partner limits assumed) above
Chain of Menin/Histone-lysine N-methyltransferase MLL (Homo sapiens, UniProt O00255+Q03164) (Q03164 2719-3969 limits assumed): as the sequence (Q03164 2719-3969 partner limits assumed) above

FC(F)(F)Cc1cc2c(N3CCC(CN[C@@H]4C[C@H]4c4ccccc4)CC3)ncnc2s1 showed an IC50 [1] of 17.3 µM, an IC50 [2] of 0.0844 µM and an IC50 [3] of 11.4 µM. For the same compound, the IC50 [4] was 1.16 µM and the IC50 [5] was 2.23 µM.

FC(F)(F)Cc1cc2c(N[C@H]3CC[C@H](CN[C@H]4C[C@@H]4c4ccccc4)CC3)ncnc2s1 gave an IC50 [1] greater than 100 µM, an IC50 [2] of 0.184 µM and an IC50 [3] of 5.55 µM. The IC50 [4] was 22 µM and the IC50 [5] was 8.57 µM.

FC(F)(F)Cc1cc2c(N[C@H]3CC[C@H](CN[C@@H]4C[C@H]4c4ccccc4)CC3)ncnc2s1 was tested, and the IC50 [1] was greater than 100 µM, the IC50 [2] was 0.109 µM and the IC50 [3] was 2.96 µM. It also gave an IC50 [4] of 4.81 µM and an IC50 [5] of 4.1 µM.

Work on FC(F)(F)Cc1cc2c(N3CCC(CN[C@H]4C[C@@H]4c4ccccc4)CC3)ncnc2s1 yielded an IC50 [1] greater than 100 µM, an IC50 [2] of 0.061 µM and an IC50 [3] of 5.97 µM. The IC50 [4] was 9.63 µM and the IC50 [5] was 9.19 µM.

With Fc1ccc([C@@H]2C[C@H]2NCC2CCN(c3ncnc4sc(CC(F)(F)F)cc34)CC2)cc1F the IC50 [1] was 30.9 µM, the IC50 [2] was 0.252 µM and the IC50 [3] was greater than 100 µM. The IC50 [4] was 49.5 µM and the IC50 [5] was 20.8 µM.

FC(F)(F)Cc1cc2c(N3CCC(N[C@@H]4C[C@H]4c4ccccc4)CC3)ncnc2s1 showed an IC50 [1] of 10.2 µM, an IC50 [2] of 0.211 µM and an IC50 [3] of 0.29 µM. The IC50 [4] was 40.3 µM, the fold change (FC) [6] was 22.3 and the IC50 [5] was 12.5 µM.

Work on FC(F)(F)Cc1cc2c(N3CCC(N[C@H]4C[C@@H]4c4ccccc4)CC3)ncnc2s1 yielded an IC50 [1] of 34.5 µM, an IC50 [2] of 0.692 µM and an IC50 [3] of 7.31 µM. It also gave an IC50 [4] of 36.7 µM and an IC50 [5] of 8.27 µM.

With CC1(C)CN=C(N2CCN(c3ncnc4sc(CC(F)(F)F)cc34)CC2)S1 the IC50 [3] was 2.6 µM, the IC50 [7] was “Not Active” and the IC50 [8] was “Not Active”. For the same compound, the IC50 [9] was “Not Active”.

For FC(F)(F)Cc1cc2c(N[C@H]3CC[C@H](N[C@H]4C[C@@H]4c4ccccc4)CC3)ncnc2s1, the IC50 [1] was greater than 100 µM, the IC50 [2] was 0.187 µM and the IC50 [3] was 3.6 µM. The IC50 [4] was 28.8 µM and the IC50 [5] was 12.9 µM.

FC(F)(F)Cc1cc2c(N[C@H]3CC[C@@H](N[C@H]4C[C@@H]4c4ccccc4)CC3)ncnc2s1 showed an IC50 [1] of 24.7 µM, an IC50 [2] of 0.242 µM and an IC50 [3] of 3.42 µM. For the same compound, the IC50 [4] was 75.6 µM and the IC50 [5] was greater than 100 µM.

Fc1ccc([C@@H]2C[C@H]2NC2CCN(c3ncnc4sc(CC(F)(F)F)cc34)CC2)cc1F gave an IC50 [1] greater than 100 µM, an IC50 [2] of 0.241 µM and an IC50 [3] greater than 100 µM. For the same compound, the IC50 [4] was 95.6 µM and the IC50 [5] was 56.4 µM.

O=C(O)c1ccc(CN2CCC(CN[C@@H]3C[C@H]3c3ccccc3)CC2)cc1 [GSK2879552] showed an IC50 [2] of 1.2 µM, an IC50 [10] of 1.16 µM and an IC50 [4] greater than 100 µM. The IC50 [11] was “Not Active” and the IC50 [5] was greater than 100 µM.

Fc1ccc([C@@H]2C[C@H]2NC[C@H]2CC[C@H](Nc3ncnc4sc(CC(F)(F)F)cc34)CC2)cc1F showed an IC50 [1] greater than 100 µM, an IC50 [2] of 0.36 µM and an IC50 [3] of 6.96 µM. For the same compound, the IC50 [4] was 20.4 µM and the IC50 [5] was 21 µM.

For FC(F)(F)Cc1cc2c(N[C@H]3CC[C@H](N[C@@H]4C[C@H]4c4ccccc4)CC3)ncnc2s1, the IC50 [1] was 36.9 µM, the IC50 [2] was 0.303 µM and the IC50 [3] was 0.49 µM. The IC50 [4] was greater than 100 µM, the fold change (FC) [6] was 16.4 and the IC50 [5] was 65.9 µM.

For FC(F)(F)Cc1cc2c(N[C@H]3CC[C@@H](N[C@@H]4C[C@H]4c4ccccc4)CC3)ncnc2s1, the IC50 [1] was 50.7 µM, the IC50 [2] was 0.124 µM and the IC50 [3] was 2.49 µM. It also gave an IC50 [4] of 6.05 µM and an IC50 [5] of 4.55 µM.

Fc1ccc([C@@H]2C[C@H]2N[C@H]2CC[C@H](Nc3ncnc4sc(CC(F)(F)F)cc34)CC2)cc1F gave an IC50 [1] greater than 100 µM, an IC50 [2] of 0.146 µM and an IC50 [3] of 2.01 µM. The IC50 [4] was 71.6 µM and the IC50 [5] was 47.5 µM.

For Fc1ccc([C@@H]2C[C@H]2N[C@H]2CC[C@@H](Nc3ncnc4sc(CC(F)(F)F)cc34)CC2)cc1F, the IC50 [1] was 2.13 µM, the IC50 [2] was 0.0661 µM and the IC50 [3] was 0.51 µM. It also gave an IC50 [4] of 1.21 µM, an IC50 [5] of 40.9 µM and a fold change (FC) [12] of 7.59.
